Where two headings read alike, the source gives them in different places.
Tests used:
[1] = tested on: JAK2 (GM-CSF-induced pSTAT5 in TF1 cells); test: GMCSF-induced pSTAT5 formation in TF1 (JAK2 cellular assay); type: cell-based; conditions: Homo sapiens, TF-1, read-out: TF1/GM-CSF percent inhibition of STAT phosphorylation
Protocol: 100 μl aliquots of TFI (2.5×10^6/ml) cells were pre-treated with various concentrations JAK inhibitors (0.04 to 5 μM, including 0.2 μM and 1 μM) for 1 hour at 37° C. Cells were then stimulated with 2 ng/ml GM-CSF for 10 minutes at 37° C. The reaction was terminated by the addition of 60 μl 16% paraformaldehyde followed by incubation for 10 minutes at room temperature. Cells were washed twice (centrifugation 5 minutes room temperature at 385×g) in PBS followed by re-suspension in −20° C. 50% methanol in PBS and storage at 4° C. overnight. The following day, cells were washed in PBS/BSA and re-suspended in the same buffer containing STAT5 Y694 specific antibody. Following incubation with antibodies, cells were washed and analyzed by flow cytometry (BD Biosciences; FACS Calibur). The gate was set on live cells in the SSC-FSC plot and 10,000 events were collected.
(§1) Percent inhibition of STAT phosphorylation in the cellular assays is provided for the compounds at the given concentrations.

JAK2 = JAK2 (Homo sapiens (Human), UniProt O60674); test: Purified kinase assay (Z'-LYTE), JAK2; type: biochemical
Sequence of JAK2 (O60674 849-1124): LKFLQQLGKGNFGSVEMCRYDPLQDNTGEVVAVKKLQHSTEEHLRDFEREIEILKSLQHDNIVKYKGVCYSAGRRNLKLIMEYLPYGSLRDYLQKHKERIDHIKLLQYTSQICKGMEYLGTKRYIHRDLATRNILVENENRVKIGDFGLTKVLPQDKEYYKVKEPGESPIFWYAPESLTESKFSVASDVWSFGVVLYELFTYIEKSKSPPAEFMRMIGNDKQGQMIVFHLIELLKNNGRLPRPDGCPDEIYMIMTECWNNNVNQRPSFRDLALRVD
How it was run: (§2)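 Catalytic-domain recombinant kinase with Tyr6 peptide (a separate Tyr6 kit for TYK2) and ATP, 1% DMSO final, reacted 1 h at room temperature. Z′-LYTE FRET read after 1 h protease development (ex 400, em 445/520 nm). Inhibition computed from percent substrate phosphorylation versus no inhibitor; IC50 from 4-parameter logistic fit.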

JAK3 = JAK3 (Homo sapiens (Human), UniProt P52333); test: Purified kinase assay (Z'-LYTE), JAK3; type: biochemical
Sequence of JAK3 (P52333 822-1111): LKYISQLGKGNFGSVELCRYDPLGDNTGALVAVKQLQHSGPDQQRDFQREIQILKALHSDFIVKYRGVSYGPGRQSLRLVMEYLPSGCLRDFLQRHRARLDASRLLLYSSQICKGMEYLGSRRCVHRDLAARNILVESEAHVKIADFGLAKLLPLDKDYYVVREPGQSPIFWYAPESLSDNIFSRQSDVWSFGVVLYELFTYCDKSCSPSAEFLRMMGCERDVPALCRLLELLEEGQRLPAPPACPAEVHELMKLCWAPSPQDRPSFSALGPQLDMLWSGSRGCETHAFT
How it was run: as §2

[2] = tested on: JAK3/JAK1 (IL2-STAT5 in PBMC); test: Intracellular STAT5 phosphorylation following IL2 stimulation of PBMC (JAK3/JAK1 cellular assay); type: cell-based; conditions: Homo sapiens, read-out: IL2-STAT5 percent inhibition of STAT phosphorylation
Protocol: Human whole blood was collected into lithium heparin vacutainer tubes from the antecubital vein of human subjects. Peripheral blood mononuclear cells (PBMC) were prepared by layering 10 ml anti-coagulated blood over 5 ml lymphoprep in a 15 ml conical tube and centrifugation for 20 minutes at 400×g in a swinging bucket rotor. The lymphocyte layer was removed, washed twice in tissue culture media (RPMI containing 10% fetal bovine serum) prior to re-suspension in the same media at 2×10^6 cells/ml. 100 μl aliquots of PMBCs were incubated for 1 h at 37° C. with various concentrations of JAK inhibitors prior to stimulation for 15 minutes with 1.5 ng/ml of IL2 or IL4. The reaction was terminated by the addition of 60 μl 16% paraformaldehyde, followed by incubation at room temperature for 10 minutes. Fixed cells were washed twice in PBS, and then re-suspended in −20° C. 50% methanol diluted in PBS and stored at 4° C. overnight. Following permeabilization of the cell membrane in methanol, cells were washed twice in PBS containing 1% BSA and PBMCs were re-suspended in the same buffer containing CD3 and STAT5 Y694 specific antibodies (IL2 stimulations) or CD3, CD14, CD19, and STAT6 Y641 specific antibodies (IL4 stimulations) for 1 hour at room temperature. Cells were then washed and re-suspended in PBS/BSA buffer and assessed by flow cytometry (LSRII; BD Biosciences) for effect of JAK inhibitors on cytokine mediated STAT phosphorylation.
as §1

TYK2 = TYK2 (Homo sapiens (Human), UniProt P29597); test: Purified kinase assay (Z'-LYTE), TYK2; type: biochemical
Sequence of TYK2 (P29597 897-1176): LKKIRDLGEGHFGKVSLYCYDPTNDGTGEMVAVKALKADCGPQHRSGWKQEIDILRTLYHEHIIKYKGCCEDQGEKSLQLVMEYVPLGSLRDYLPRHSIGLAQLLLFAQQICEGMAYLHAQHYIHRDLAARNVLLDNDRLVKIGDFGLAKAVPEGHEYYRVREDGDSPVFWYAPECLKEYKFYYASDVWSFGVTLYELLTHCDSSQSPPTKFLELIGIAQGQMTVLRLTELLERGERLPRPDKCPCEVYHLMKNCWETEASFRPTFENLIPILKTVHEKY
Protocol: JAK and TYK2 tyrosine phosphorylation activity is measured using the Z′-LYTE™ Technology developed by Invitrogen Corporation (Carlsbad, Calif.). For JAK1, JAK2 and JAK3 the Z′-LYTE™ Kinase Assay Kit-Tyr6 Peptide (part number PV4122) was used. For TYK2 the Z′-LYTE™ Kinase Assay Kit-Tyr6 Peptide (part number PV3192) was used. The Z′-LYTE™ biochemical assay employs a fluorescence resonance energy transfer (FRET) coupled-enzyme format and is based on the differential sensitivity of phosphorylated and non-phosphorylated peptides to proteolytic cleavage. The assay uses a synthetic peptide substrate that is labeled with a donor fluorophore (coumarin) and an acceptor fluorophore (fluorescein) that make up a FRET pair. In the primary reaction (the Kinase Reaction), the kinase transfers the γ-phosphate of ATP to a single tyrosine residue on the substrate, while the presence of a kinase inhibitor in the primary reaction suppresses phosphorylation. In the secondary reaction (the Development Reaction), a site-specific protease (the Development Reagent) is added. The development buffer quenches the Kinase Reaction, while the protease recognizes and cleaves non-phosphorylated Z′-LYTE™ peptide substrate. Cleavage disrupts FRET between the donor and acceptor fluorophores on the non-phosphorylated substrate, while uncleaved, phosphorylated substrate maintains FRET.
To test the ability of candidate molecules to inhibit JAK tyrosine phosphorylation activity, molecules are reconstituted in 100% DMSO and serially diluted 1:10 in polypropylene v-bottom microtiter plates. The candidate molecules are then diluted 1:25 into kinase buffer and 2.5 μl transferred into duplicate wells of a 384 well low volume black microtiter assay plate (Corning, USA). The final DMSO concentration in the assay is 1%. The kinase reaction contains 2.5 μl of a candidate molecule, 5 μl of catalytic domain recombinant Kinase enzyme+Tyr peptide substrate (Invitrogen, CA) and ATP (Invitrogen, CA). The kinase reaction is allowed to proceed for 1 hour at room temperature. The protease reaction is initiated by the addition of Development Reagent (Invitrogen, CA). After 1 hour incubation at room temperature the fluorescence is measured using a FlexStation plate reader (Molecular Devices, Sunnyvale, Calif.). The reader settings used are as follows: Fluorescence mode, endpoint, top read, excitation 400 nm, emission 445 nm and 520 nm, Auto Cutoff 435 nm and 515 nm, PMT sensitivity high, 6 reads per well Inhibition of JAK activity is calculated as the percent phosphorylation of substrate in the presence of inhibitor compared to the percent phosphorylation of substrate in the absence of inhibitor. IC50's were derived using Xlfit 4.3 (IDBS, UK), 4 parameter logistic model 205: Y=(A+((B−A)/(1+((C/x)^D)))).

JAK1 = JAK1 (Homo sapiens (Human), UniProt P23458); test: Purified kinase assay (Z'-LYTE), JAK1; type: biochemical
Sequence of JAK1 (P23458 875-1153): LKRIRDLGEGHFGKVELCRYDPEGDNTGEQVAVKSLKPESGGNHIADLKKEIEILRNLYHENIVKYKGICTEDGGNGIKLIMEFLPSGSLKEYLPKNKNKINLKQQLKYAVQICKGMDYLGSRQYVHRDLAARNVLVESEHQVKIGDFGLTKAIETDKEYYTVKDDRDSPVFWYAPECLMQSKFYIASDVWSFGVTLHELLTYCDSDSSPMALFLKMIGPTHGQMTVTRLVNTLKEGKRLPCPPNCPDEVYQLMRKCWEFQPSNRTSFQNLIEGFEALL
How it was run: as §2

`CCC(=O)N1CCN(c2ccc(Nc3cc(NCc4c(F)cccc4F)c(C(N)=O)nn3)cc2)CC1` [Compound 33] showed an inhibition at 0.1 µM [1] of 0%, an inhibition at 1 µM [1] of 17% and an IC50 (JAK2; Table 1, read-out: JAK2 IC50) of 10 to 100 nM. It also gave an IC50 (JAK2; Table 2, read-out: JAK2) of 10 to 100 nM, an IC50 (JAK3; Table 1, read-out: JAK3 IC50) of 1 to 10 nM and an IC50 (JAK3; Table 2, read-out: JAK3) of 1 to 10 nM. For the same molecule, the inhibition at 0.2 µM [2] was 31%, the inhibition at 1 µM [2] was 53% and the IC50 (TYK2; Table 1, read-out: Tyk2 IC50) was 10 to 100 nM. The IC50 (TYK2; Table 2, read-out: TYK2) was 10 to 100 nM, the IC50 (JAK1; Table 1, read-out: JAK1 IC50) was 100 to 1000 nM and the IC50 (JAK1; Table 2, read-out: JAK1) was 100 to 1000 nM.
`CC(=O)N1CCN(c2ccc(Nc3cc(NCc4cc(F)cc(F)c4)c(C(N)=O)nn3)cc2)CC1` [Compound 20] showed an inhibition at 0.1 µM [1] of 3%, an inhibition at 1 µM [1] of 2% and an IC50 (JAK2; Table 1, read-out: JAK2 IC50) of 10 to 100 nM. It also gave an IC50 (JAK2; Table 2, read-out: JAK2) of 100 to 1000 nM, an IC50 (JAK3; Table 1, read-out: JAK3 IC50) of 1 to 10 nM and an IC50 (JAK3; Table 2, read-out: JAK3) of 1 to 10 nM. For the same molecule, the inhibition at 0.2 µM [2] was 32%, the inhibition at 1 µM [2] was 60% and the IC50 (TYK2; Table 1, read-out: Tyk2 IC50) was 100 to 1000 nM. For the same molecule, the IC50 (TYK2; Table 2, read-out: TYK2) was 100 to 1000 nM, the IC50 (JAK1; Table 1, read-out: JAK1 IC50) was 100 to 1000 nM and the IC50 (JAK1; Table 2, read-out: JAK1) was greater than 1000 nM.
Molecule `CC(=O)N1CCN(c2ccc(Nc3cc(NCc4cccc5ccsc45)c(C(N)=O)nn3)cc2)CC1` [Compound 98] has an IC50 (JAK2; Table 1, read-out: JAK2 IC50) of 10 to 100 nM, an IC50 (JAK2; Table 2, read-out: JAK2) of 10 to 100 nM and an IC50 (JAK3; Table 1, read-out: JAK3 IC50) of 1 to 10 nM. The IC50 (JAK3; Table 2, read-out: JAK3) was 1 to 10 nM, the inhibition at 0.2 µM [2] was 13% and the inhibition at 1 µM [2] was 64%. The IC50 (TYK2; Table 1, read-out: Tyk2 IC50) was greater than 1000 nM, the IC50 (TYK2; Table 2, read-out: TYK2) was greater than 1000 nM and the IC50 (JAK1; Table 1, read-out: JAK1 IC50) was 100 to 1000 nM. For the same molecule, the IC50 (JAK1; Table 2, read-out: JAK1) was greater than 1000 nM.
`CC(=O)N1CCN(c2ccc(Nc3cc(NCc4cccc5[nH]ccc45)c(C(N)=O)nn3)cc2)CC1` [Compound 109] showed an IC50 (JAK2; Table 1, read-out: JAK2 IC50) of 10 to 100 nM, an IC50 (JAK2; Table 2, read-out: JAK2) of 10 to 100 nM and an IC50 (JAK3; Table 1, read-out: JAK3 IC50) of less than 1 nM. The IC50 (JAK3; Table 2, read-out: JAK3) was 1 to 10 nM, the inhibition at 0.2 µM [2] was 69% and the inhibition at 1 µM [2] was 95%. It also gave an IC50 (JAK1; Table 1, read-out: JAK1 IC50) of 10 to 100 nM and an IC50 (JAK1; Table 2, read-out: JAK1) of 10 to 100 nM.

— US9834548B2, “Pyridazine compounds as JAK inhibitors” (Portola Pharmaceuticals, Inc., priority 2014, dated 2017)
